Experimental data published in US7465736B2, “Azole methylidene cyanide derivatives and their use as protein kinase modulators” (Laboratoires Serono S.A., priority 2002, dated 2008).

Tests used:
rat JNK3 = rat JNK3 (Rattus norvegicus, UniProt P49187); test: JNK3 in vitro assay (33P incorporation into biotinylated GST-c-Jun, SPA beads); type: biochemical; settings: in vitro potency on rat JNK3
Protocol: The compounds of the present invention are inhibitors of JNKs. The phosphorylation of c-jun by JNK2 or JNK3 may be determined by monitoring the incorporation of ^33P into c-jun following the protocol below. The inhibitory activity of the compounds according to formula I, towards c-jun phosphorylation through JNK, is determined by calculating phosphorylation activity in the presence or absence of compounds according to formula I.
JNK3 and/or -2 assays are performed in 96 well MTT plates: incubation of 0.5 μg of recombinant, pre-activated GST-JNK3 or GST-JNK2 with 1 μg of recombinant, biotinylated GST-c-Jun and 2 μM ^33γ-ATP (2 nCi/μl), in the presence or absence of compounds according to formula I and in a reaction volume of 50 μl containing 50 mM Tris-HCl, pH 8.0; 10 mM MgCl2; 1 mM Dithiothreitol, and 100 μM NaVO4. The test compound according to formula I is used in concentrations of 10, 3, 033, 0.1, 0.033, 0.01, 0.0033, 0.001 μM. The incubation is performed for 120 min. at R.T and stopped upon addition of 200 μl of a solution containing 250 μg of Streptavidine-coated SPA beads (Amersham, Inc.)*, 5 mM EDTA, 0.1% Triton X-100 and 50 μM ATP, in phosphate saline buffer.
After incubation for 60 minutes at RT, beads are sedimented by centrifugation at 1500×g for 5 minutes, resuspended in 200 μl of PBS containing 5 mM EDTA, 0.1% Triton X-100 and 50 μM ATP and the radioactivity measured in a scintillation β counter, following sedimentation of the beads as described above.

human GSK3 β = human GSK3 β (Homo sapiens, UniProt P49841); test: GSK3β in vitro assay (33P incorporation into phospho GS2 peptide, scintillation counting); type: biochemical; settings: in vitro potency on human GSK3 β
human GSK3 β, sequence (P49841 whole entry): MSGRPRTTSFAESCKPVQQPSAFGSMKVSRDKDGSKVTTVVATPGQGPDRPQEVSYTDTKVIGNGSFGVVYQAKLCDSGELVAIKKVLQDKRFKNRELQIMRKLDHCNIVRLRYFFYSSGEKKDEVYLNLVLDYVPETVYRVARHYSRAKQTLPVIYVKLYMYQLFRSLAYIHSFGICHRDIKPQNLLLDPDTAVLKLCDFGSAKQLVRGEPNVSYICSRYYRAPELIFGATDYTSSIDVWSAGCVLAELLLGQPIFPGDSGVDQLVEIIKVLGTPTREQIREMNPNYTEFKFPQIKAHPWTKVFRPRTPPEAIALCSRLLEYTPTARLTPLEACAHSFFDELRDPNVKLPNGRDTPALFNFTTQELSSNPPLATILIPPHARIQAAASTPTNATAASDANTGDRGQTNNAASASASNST
Protocol: GSK3β Assay (see Naerum et al., Bioorg. Med. Chem. Lett 12 p. 1525-1528 (2002))
In a final reaction volume of 25 μl, the protein kinase GSK3β (h) (5-10 mU) is incubated with 8 mM MOPS at a pH of 7.0, in 0.2 mM EDTA, as well as 20 μM of the peptide […](p)EDEEE (SEQ ID NO: 1; a phosphor GS2 peptide being the GSK3 substrate in this assay), 10 mM Mg Acetate and [γ-^33P-ATP] (Specific activity approx. 500 cpm/pmol, concentration as required). The reaction is initiated by the addition of Mg^2+[γ-^33P-ATP]. The test compound according to formula I is used in concentrations of 100, 25, 5, 1.25, 0.315, 0.078, 0.0195, 0.0049, 0.0012, 0.00031 μM. After incubations for 40 minutes at room temperature, the reaction is stopped by the addition of 5 μl of a 3% phosphoric acid solution. 10 μl of the reaction is then spotted onto a P30 filtermat and washed three times for 5 minutes in 50 mM phosphoric acid and once in methanol prior to drying and the degree of phosphorylation of the substrate is determined by scintillation counting.

rat JNK3, sequence (P49187 whole entry): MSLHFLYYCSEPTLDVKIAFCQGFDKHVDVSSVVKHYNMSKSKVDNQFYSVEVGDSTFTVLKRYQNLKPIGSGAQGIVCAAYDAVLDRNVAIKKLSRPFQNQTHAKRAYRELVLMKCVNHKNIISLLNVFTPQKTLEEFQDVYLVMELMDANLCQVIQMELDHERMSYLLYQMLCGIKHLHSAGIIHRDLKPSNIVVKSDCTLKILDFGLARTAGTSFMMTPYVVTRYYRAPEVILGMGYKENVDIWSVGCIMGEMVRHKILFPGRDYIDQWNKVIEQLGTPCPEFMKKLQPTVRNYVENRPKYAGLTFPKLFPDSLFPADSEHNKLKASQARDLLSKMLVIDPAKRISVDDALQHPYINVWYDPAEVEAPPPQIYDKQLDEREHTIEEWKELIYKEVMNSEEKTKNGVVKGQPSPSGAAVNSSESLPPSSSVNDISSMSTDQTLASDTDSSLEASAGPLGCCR

Row | Structure (SMILES) | IC50 (rat JNK3) | IC50 (human GSK3 β)
1 | CCC1=CS/C(=C(/C#N)c2ccnc(NC3CCN(S(C)(=O)=O)CC3)n2)N1 | < 10 µM | 
2 | N#C/C(=C1\NC(C(=O)O)=CS1)c1ccnc(NCCCN2CCCC2=O)n1 [2-[cyano(2-{[3-(2-oxopyrrolidin-1-yl)propyl]amino}pyrimidin-4-yl)methylene]-2,3-dihydro-1,3-thiazole-4-carboxylic acid] | < 10 µM | < 10 µM
3 | CCC1=CS/C(=C(/C#N)c2ccnc(NCCc3ccc(S(N)(=O)=O)cc3)n2)N1 [4-[2-({4-[cyano(4-ethyl-1,3-thiazol-2(3H)-ylidene)methyl]pyrimidin-2-yl}amino)ethyl]benzenesulfonamide] | < 10 µM | < 10 µM
4 | N#C/C(=C1\NC(c2ccccc2)=CS1)c1ccnc(NCCNc2ccc(C#N)cn2)n1 [6-{[2-({4-[cyano(4-phenyl-1,3-thiazol-2(3H)-ylidene)methyl]pyrimidin-2-yl}amino)ethyl]amino}nicotinonitrile] | < 10 µM | 
5 | CC1=CS/C(=C(/C#N)c2ccnc(N3CCC(Nc4ncccn4)CC3)n2)N1 [(4-methyl-1,3-thiazol-2(3H)-ylidene){2-[4-(pyrimidin-2-ylamino)piperidin-1-yl]pyrimidin-4-yl}acetonitrile] |  | < 10 µM
6 | N#C/C(=C1\NC(c2ccccc2Cl)=CS1)c1ccnc(NC2CC2)n1 [[4-(2-chlorophenyl)-1,3-thiazol-2(3H)-ylidene][2-(cyclopropylamino)pyrimidin-4-yl]acetonitrile] |  | < 10 µM
7 | CN(C)c1nc(/C(C#N)=C2/NC(c3ccccc3)=CS2)nc(N2CCCC3CCCCC32)n1 (centres unmarked) [[4-(dimethylamino)-6-(octahydroquinolin-1(2H)-yl)-1,3,5-triazin-2-yl](4-phenyl-1,3-thiazol-2(3H)-ylidene)acetonitrile] |  | < 10 µM
8 | CC1=CS/C(=C(/C#N)c2cc(NCc3ccco3)ncn2)N1 [{6-[(2-furylmethyl)amino]pyrimidin-4-yl}(4-methyl-1,3-thiazol-2(3H)-ylidene)acetonitrile] |  | < 10 µM
9 | CC1=CS/C(=C(/C#N)c2cc(N(C)c3ccccc3)nc(NCCc3cccnc3)n2)N1 [{6-[methyl(phenyl)amino]-2-[(2-pyridin-3-ylethyl)amino]pyrimidin-4-yl}(4-methyl-1,3-thiazol-2(3H)-ylidene)acetonitrile] |  | < 10 µM
